From ChEMBL document CHEMBL6103537 (J Med Chem, 2025)
Activity calls are given as the source filed them. The calls are words filed in the database; no cut-off is given here.

Experiments:
[1] = target: Protein cereblon/Signal transducer and activator of transcription 2 (Homo sapiens) (UniProt Q96SW2+P52630); experiment: PROTAC activity at STAT2/CRBN in human MV4-11 cells assessed as reduction in STAT2 level at 10 uM incubated for 12 hrs by Western blot analysis relative to control; assay type: cell-based
[2] = target: Protein cereblon/Signal transducer and activator of transcription 1-alpha/beta (Homo sapiens) (UniProt P42224+Q96SW2); experiment: PROTAC activity at STAT1/CRBN in human PBMC cells assessed as reduction in STAT1 level at 10 uM incubated for 18 hrs by Western blot analysis relative to control; assay type: cell-based
[3] = target: Protein cereblon/Signal transducer and activator of transcription 3 (Homo sapiens) (UniProt P40763+Q96SW2); experiment: PROTAC activity at STAT3/CRBN in human PBMC cells assessed as reduction in STAT3 level at 10 uM incubated for 18 hrs by Western blot analysis relative to control; assay type: cell-based
[4] = target: Protein cereblon/Signal transducer and activator of transcription 4 (Homo sapiens) (UniProt Q96SW2+Q14765); experiment: PROTAC activity at STAT4/CRBN in human PBMC cells assessed as reduction in STAT4 level at 10 uM incubated for 18 hrs by Western blot analysis relative to control; assay type: cell-based
[5] = target: T1, Protein cereblon/Signal transducer and activator of transcription 6 (Homo sapiens, UniProt P42226+Q96SW2); experiment: PROTAC activity at STAT6/CRBN in human L-1236 cells assessed as reduction in STAT6 level at 10 uM incubated for 24 hrs by Western blot analysis; assay type: cell-based
[6] = target: Protein cereblon/Signal transducer and activator of transcription 5A/Signal transducer and activator of transcription 5B (Homo sapiens) (UniProt P42229+P51692+Q96SW2); experiment: PROTAC activity at STAT5/CRBN in human L-1236 cells assessed as reduction in STAT5 level at 10 uM incubated for 24 hrs by Western blot analysis; assay type: cell-based
[7] = target: T1, Protein cereblon/Signal transducer and activator of transcription 6; experiment: PROTAC activity at STAT6/CRBN in human PBMC cells assessed as reduction in STAT6 level at 5 uM incubated for 18 hrs by Western blot analysis relative to control; assay type: cell-based; parameters: scale not given: the % may be the effect or the level left
[8] = Downregulation of AKR7A3 level in human PBMC cells at 5 uM incubated for 18 hrs by Western blot analysis relative to control; assay type: functional
PBMC [9] = experiment: Downregulation of STAT2 level in human PBMC cells at 5 uM incubated for 18 hrs by Western blot analysis relative to control; assay type: functional, cell-based
PBMC [10] = experiment: Downregulation of STAT3 level in human PBMC cells at 5 uM incubated for 18 hrs by Western blot analysis relative to control; assay type: functional, cell-based
[11] = target: T1, Protein cereblon/Signal transducer and activator of transcription 6; experiment: PROTAC activity at STAT6/CRBN in human MV4-11 cells assessed as reduction in STAT6 level at 2 uM by HiBiT bioluminescence assay; assay type: cell-based; details: time <= 1200.0 min
[12] = target: T1, Protein cereblon/Signal transducer and activator of transcription 6; experiment: PROTAC activity at STAT6/CRBN in human MV4-11 cells assessed as reduction in STAT6 level at 2 uM measured upto 1200 mins in presence of lenalidomide by HiBiT bioluminescence assay; assay type: cell-based; details: Jurkat
[13] = target: T1, Protein cereblon/Signal transducer and activator of transcription 6; experiment: PROTAC activity at STAT6/CRBN in human MV4-11 cells assessed as reduction in STAT6 level at 2 uM measured upto 1200 mins in presence of […] by HiBiT bioluminescence assay; assay type: cell-based
[14] = target: Cereblon/Ikaros (Homo sapiens) (UniProt Q96SW2+Q13422); experiment: PROTAC activity at CRBN/IKZF1 in human Jurkat cells assessed as degradation of IKZF1 protein at 0.01 to 10 uM incubated for 20 hrs by Western blotting analysis; assay type: cell-based; details: dose 0.01-10 µM
[15] = target: Protein cereblon/Zinc finger protein Aiolos (Homo sapiens) (UniProt Q96SW2+Q9UKT9); experiment: PROTAC activity at CRBN/IKZF3 in human Jurkat cells assessed as degradation of IKZF3 protein at 0.01 to 10 uM incubated for 20 hrs by Western blotting analysis; assay type: cell-based; details: dose 0.01-10 µM
[16] = target: Protein cereblon/Zinc finger protein Helios (Homo sapiens) (UniProt Q96SW2+Q9UKS7); experiment: PROTAC activity at CRBN/IKZF2 in human Jurkat cells assessed as degradation of IKZF2 protein at 0.01 to 10 uM incubated for 20 hrs by Western blotting analysis; assay type: cell-based; details: dose 0.01-10 µM
[17] = target: Protein cereblon/Eukaryotic peptide chain release factor GTP-binding subunit ERF3A (Homo sapiens) (UniProt Q96SW2+P15170); experiment: PROTAC activity at CRBN/GSPT1 in human Jurkat cells assessed as degradation of GSPT1 protein at 0.01 to 10 uM incubated for 20 hrs by Western blotting analysis; assay type: cell-based; details: dose 0.01-10 µM
[18] = Metabolic stability in dog liver microsome assessed as parent compound remaining measured at 15 mins in presence of NADPH by LC-MS/MS analysis; assay type: ADME, Canis lupus familiaris; details: liver microsomes, read-out: Stability
[19] = Metabolic stability in rat liver microsome assessed as parent compound remaining measured at 30 mins in presence of NADPH by LC-MS/MS analysis; assay type: ADME; details: liver microsomes, read-out: Stability
[20] = Metabolic stability in rat liver microsome assessed as parent compound remaining measured at 45 mins in presence of NADPH by LC-MS/MS analysis; assay type: ADME; details: liver microsomes, read-out: Stability
[21] = Metabolic stability in mouse liver microsome assessed as parent compound remaining measured at 5 mins in presence of NADPH by LC-MS/MS analysis; assay type: ADME; details: liver microsomes, read-out: Stability
[22] = Metabolic stability in mouse liver microsome assessed as parent compound remaining measured at 45 mins in presence of NADPH by LC-MS/MS analysis; assay type: ADME; details: liver microsomes, read-out: Stability
[23] = Metabolic stability in dog liver microsome assessed as half life measured upto 60 mins in presence of NADPH by LC-MS/MS analysis; assay type: ADME, Canis lupus familiaris; details: liver microsomes
[24] = Metabolic stability in rat liver microsome assessed as half life measured upto 60 mins in presence of NADPH by LC-MS/MS analysis; assay type: ADME; details: liver microsomes
[25] = Stability in dog plasma assessed as parent compound remaining measured at 15 mins by LC-MS/MS analysis; assay type: ADME, cell-free, Canis lupus familiaris; details: read-out: Stability
[26] = Stability in dog plasma assessed as parent compound remaining measured at 60 mins by LC-MS/MS analysis; assay type: ADME, cell-free, Canis lupus familiaris; details: read-out: Stability
[27] = Stability in dog plasma assessed as parent compound remaining measured at 120 mins by LC-MS/MS analysis; assay type: ADME, cell-free, Canis lupus familiaris; details: read-out: Stability
[28] = Stability in monkey plasma assessed as parent compound remaining measured at 60 mins by LC-MS/MS analysis; assay type: ADME, cell-free, Macaca mulatta; details: rhesus monkey, read-out: Stability
[29] = Stability in rat plasma assessed as parent compound remaining measured at 5 mins by LC-MS/MS analysis; assay type: ADME, cell-free; details: read-out: Stability
[30] = Stability in rat plasma assessed as parent compound remaining measured at 15 mins by LC-MS/MS analysis; assay type: ADME, cell-free; details: read-out: Stability
[31] = Stability in rat plasma assessed as parent compound remaining measured at 60 mins by LC-MS/MS analysis; assay type: ADME, cell-free; details: read-out: Stability
[32] = Stability in rat plasma assessed as parent compound remaining measured at 120 mins by LC-MS/MS analysis; assay type: ADME, cell-free; details: read-out: Stability
[33] = Stability in mouse plasma assessed as parent compound remaining measured at 120 mins by LC-MS/MS analysis; assay type: ADME, cell-free; details: read-out: Stability

T1 sequence (P42226 2-847 limits assumed): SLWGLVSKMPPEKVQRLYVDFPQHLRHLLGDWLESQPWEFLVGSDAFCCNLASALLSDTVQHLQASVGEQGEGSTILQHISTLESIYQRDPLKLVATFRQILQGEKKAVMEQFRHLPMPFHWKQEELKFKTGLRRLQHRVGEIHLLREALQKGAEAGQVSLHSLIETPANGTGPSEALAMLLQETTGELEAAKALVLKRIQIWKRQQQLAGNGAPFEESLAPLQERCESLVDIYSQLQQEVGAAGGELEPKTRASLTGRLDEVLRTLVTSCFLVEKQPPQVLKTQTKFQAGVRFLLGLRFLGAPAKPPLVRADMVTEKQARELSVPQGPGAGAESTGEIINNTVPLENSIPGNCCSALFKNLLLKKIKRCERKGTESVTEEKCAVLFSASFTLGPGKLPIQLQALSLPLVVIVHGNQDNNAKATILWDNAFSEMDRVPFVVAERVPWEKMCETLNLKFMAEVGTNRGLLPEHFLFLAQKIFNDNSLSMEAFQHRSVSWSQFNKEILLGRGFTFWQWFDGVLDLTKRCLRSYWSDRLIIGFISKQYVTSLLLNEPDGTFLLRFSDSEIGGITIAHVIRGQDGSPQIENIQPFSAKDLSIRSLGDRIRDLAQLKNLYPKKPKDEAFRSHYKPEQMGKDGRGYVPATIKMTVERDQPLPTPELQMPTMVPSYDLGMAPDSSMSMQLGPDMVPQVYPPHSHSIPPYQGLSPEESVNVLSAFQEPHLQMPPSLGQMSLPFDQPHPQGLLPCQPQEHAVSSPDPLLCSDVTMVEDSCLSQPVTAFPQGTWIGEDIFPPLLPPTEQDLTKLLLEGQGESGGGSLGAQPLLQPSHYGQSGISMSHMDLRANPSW
T1 sequence (Q96SW2 whole entry partner): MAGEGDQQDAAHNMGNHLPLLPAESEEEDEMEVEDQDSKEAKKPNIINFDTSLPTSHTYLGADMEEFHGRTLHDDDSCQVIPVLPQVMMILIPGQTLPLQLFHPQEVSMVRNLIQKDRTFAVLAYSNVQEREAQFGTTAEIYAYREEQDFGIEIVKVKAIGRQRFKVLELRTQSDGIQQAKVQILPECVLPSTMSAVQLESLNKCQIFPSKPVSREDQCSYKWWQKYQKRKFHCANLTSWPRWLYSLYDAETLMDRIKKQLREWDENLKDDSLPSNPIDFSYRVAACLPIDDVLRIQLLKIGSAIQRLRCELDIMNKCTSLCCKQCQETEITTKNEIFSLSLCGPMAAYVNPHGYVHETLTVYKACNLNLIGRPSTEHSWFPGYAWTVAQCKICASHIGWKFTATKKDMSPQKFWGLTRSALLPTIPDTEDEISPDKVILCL
Chain of Protein cereblon/Eukaryotic peptide chain release factor GTP-binding subunit ERF3A (Homo sapiens) (P15170 whole entry, looked up): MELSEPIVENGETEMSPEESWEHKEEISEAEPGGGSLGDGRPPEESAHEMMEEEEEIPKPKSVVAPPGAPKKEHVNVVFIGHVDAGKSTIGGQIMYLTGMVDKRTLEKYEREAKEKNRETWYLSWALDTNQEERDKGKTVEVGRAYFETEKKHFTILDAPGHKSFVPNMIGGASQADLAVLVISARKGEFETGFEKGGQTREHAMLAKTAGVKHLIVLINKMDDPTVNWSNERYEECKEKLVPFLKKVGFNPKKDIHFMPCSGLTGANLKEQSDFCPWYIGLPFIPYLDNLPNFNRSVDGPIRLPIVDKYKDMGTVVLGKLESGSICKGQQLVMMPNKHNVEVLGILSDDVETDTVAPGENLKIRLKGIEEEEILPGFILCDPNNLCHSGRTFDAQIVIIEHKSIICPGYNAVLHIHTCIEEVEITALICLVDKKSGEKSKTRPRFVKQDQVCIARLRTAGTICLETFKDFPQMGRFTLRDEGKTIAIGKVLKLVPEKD
Chain of Protein cereblon/Eukaryotic peptide chain release factor GTP-binding subunit ERF3A (Homo sapiens) (Q96SW2 whole entry, looked up): as the sequence (Q96SW2 whole entry partner) above
Chain of Protein cereblon/Zinc finger protein Aiolos (Homo sapiens) (Q96SW2 whole entry, looked up): as the sequence (Q96SW2 whole entry partner) above
Chain of Protein cereblon/Zinc finger protein Aiolos (Homo sapiens) (Q9UKT9 whole entry, looked up): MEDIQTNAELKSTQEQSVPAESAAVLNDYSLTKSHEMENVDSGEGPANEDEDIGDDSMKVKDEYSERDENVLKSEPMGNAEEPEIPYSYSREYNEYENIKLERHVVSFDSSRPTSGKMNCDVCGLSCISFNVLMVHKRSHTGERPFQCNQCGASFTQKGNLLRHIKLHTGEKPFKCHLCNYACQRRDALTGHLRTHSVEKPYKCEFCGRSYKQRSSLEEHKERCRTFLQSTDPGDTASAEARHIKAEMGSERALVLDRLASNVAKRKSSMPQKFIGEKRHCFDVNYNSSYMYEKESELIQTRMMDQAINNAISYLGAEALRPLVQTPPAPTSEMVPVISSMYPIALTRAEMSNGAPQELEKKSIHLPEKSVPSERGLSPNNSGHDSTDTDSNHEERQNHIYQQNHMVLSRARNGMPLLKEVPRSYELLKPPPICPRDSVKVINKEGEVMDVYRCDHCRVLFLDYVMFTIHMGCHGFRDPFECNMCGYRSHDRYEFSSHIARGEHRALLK
Chain of Protein cereblon/Zinc finger protein Helios (Homo sapiens) (Q96SW2 whole entry, looked up): as the sequence (Q96SW2 whole entry partner) above
Chain of Protein cereblon/Zinc finger protein Helios (Homo sapiens) (Q9UKS7 whole entry, looked up): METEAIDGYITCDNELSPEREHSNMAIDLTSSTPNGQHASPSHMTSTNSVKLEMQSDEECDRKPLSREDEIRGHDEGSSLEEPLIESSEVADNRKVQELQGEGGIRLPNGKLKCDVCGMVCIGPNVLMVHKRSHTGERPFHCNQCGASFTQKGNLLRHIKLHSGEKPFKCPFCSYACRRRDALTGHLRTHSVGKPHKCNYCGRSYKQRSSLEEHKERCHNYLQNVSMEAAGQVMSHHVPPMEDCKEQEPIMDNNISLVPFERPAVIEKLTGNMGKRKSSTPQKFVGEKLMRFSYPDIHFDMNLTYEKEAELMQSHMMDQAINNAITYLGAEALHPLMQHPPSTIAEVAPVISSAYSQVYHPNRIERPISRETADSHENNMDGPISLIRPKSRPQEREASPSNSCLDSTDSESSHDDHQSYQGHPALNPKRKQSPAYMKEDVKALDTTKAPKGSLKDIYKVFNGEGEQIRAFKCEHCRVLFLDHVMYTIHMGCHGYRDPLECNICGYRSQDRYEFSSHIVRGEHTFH

Emax [1]: < 40% | Activity [2]: No effect | Activity [3]: No effect | Activity [4]: No effect | Activity [5]: No effect | Activity [6]: No effect | Activity [7]: 79% | Activity [11]: Time-dependent-effect | Activity [12]: Active | Activity [13]: Active | Activity [14]: Active | Activity [15]: No effect | Activity [16]: No effect | Activity [17]: No effect | remaining at 0.25 h [18]: 97% | remaining at 0.5 h [19]: 96% | remaining at 0.75 h [20]: 90% | remaining at 5 min [21]: 98% | remaining at 0.75 h [22]: 92% | half-life [23]: > 2 h | half-life [24]: > 2 h | remaining at 0.25 h [25]: 87% | remaining at 1 h [26]: 69% | remaining at 2 h [27]: 67% | remaining at 1 h [28]: 81% | remaining at 5 min [29]: 86% | remaining at 0.25 h [30]: 96% | remaining at 1 h [31]: 91% | remaining at 2 h [32]: 67% | remaining at 2 h [33]: 79%
Compound: CC(C)(C)[C@H](NC(=O)c1cc2cc(C(F)(F)P(=O)(O)O)ccc2s1)C(=O)N1C[C@@H](OCCCCCC#Cc2cccc3c2CN(C2CCC(=O)NC2=O)C3=O)C[C@H]1C(=O)N1CCO[C@H](c2ccccc2)C1 (stereo partly drawn)
Activity [8]: 51% | Activity (PBMC [9]): inactive | Activity (PBMC [10]): inactive
